Experimental data from ChEMBL document CHEMBL1201862, “PubChem BioAssay data set” (2004).
Activity calls are given as the source filed them. Cut-off read from the data, not from the text of the source: actives have a measured IC50 and inactives only a lower limit.

Molecular target: Envelope glycoprotein gp160 (Human immunodeficiency virus 1, UniProt Q6QLK5)
Test: inhibitors of HIV fusion peptide binding, primary screen, biochemical, uHTS, fluorescence dequenching (AID 1986)

Chain of Envelope glycoprotein gp160 (Q6QLK5 whole entry, the tested form may be a part): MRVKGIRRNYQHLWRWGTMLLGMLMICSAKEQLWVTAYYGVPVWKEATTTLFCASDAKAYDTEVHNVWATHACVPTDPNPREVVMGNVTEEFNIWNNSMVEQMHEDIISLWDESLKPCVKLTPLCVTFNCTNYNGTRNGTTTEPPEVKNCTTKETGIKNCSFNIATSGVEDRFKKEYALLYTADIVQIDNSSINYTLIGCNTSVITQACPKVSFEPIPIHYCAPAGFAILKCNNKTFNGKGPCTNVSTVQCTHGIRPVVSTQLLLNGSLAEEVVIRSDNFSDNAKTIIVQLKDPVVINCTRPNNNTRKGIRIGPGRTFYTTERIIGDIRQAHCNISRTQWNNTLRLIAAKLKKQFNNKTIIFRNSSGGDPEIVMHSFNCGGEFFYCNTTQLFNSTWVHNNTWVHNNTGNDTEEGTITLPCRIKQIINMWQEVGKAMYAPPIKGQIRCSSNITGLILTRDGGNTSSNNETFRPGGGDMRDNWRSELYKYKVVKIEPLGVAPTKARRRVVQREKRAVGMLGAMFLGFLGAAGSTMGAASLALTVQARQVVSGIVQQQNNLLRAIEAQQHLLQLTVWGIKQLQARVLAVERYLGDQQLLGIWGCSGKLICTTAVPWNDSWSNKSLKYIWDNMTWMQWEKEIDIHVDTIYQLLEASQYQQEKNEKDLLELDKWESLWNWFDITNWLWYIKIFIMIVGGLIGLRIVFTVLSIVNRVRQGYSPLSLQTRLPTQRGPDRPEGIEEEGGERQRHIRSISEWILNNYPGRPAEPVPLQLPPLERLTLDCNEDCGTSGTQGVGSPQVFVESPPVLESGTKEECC

SMILES | IC50
CC(C)(C)CC(C)(C)c1ccc(OCC(=O)N/N=C/c2ccc(S(=O)(=O)O)o2)cc1 | 27.8 µM (active)
O=C(NN1C(=O)/C(=C/c2ccc(O)c([N+](=O)[O-])c2)SC1=S)c1ccccc1Cl | 28.2 µM (active)
